Biological target: T1, COX-2 (Homo sapiens, UniProt P35354)
T1 construct: gene PTGS2
T1 sequence (P35354 18-604): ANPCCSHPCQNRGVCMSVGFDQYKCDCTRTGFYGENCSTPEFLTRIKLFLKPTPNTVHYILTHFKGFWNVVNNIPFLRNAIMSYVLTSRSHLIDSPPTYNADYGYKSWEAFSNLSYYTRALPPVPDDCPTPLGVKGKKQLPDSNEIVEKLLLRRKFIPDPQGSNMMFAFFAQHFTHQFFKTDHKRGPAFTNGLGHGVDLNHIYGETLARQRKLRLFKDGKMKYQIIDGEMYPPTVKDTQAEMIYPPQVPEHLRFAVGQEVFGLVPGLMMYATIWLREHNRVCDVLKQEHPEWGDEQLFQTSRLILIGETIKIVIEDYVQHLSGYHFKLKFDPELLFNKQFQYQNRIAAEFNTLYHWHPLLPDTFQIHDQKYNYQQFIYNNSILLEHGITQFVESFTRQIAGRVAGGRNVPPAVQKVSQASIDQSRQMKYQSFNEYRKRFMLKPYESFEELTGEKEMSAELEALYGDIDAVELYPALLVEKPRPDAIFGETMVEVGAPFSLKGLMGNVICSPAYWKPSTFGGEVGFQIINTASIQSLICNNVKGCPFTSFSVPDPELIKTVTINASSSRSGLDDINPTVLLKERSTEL
Test: recombinant human COX-2 inhibition, PGE2 measured by UPLC-MS/MS
Type: biochemical

SMILES: Cc1ccc(-c2cc(CNC(=O)CCCCC[N+]3=C(/C=C/C=C/C=C4/N(C)c5ccccc5C4(C)C)C(C)(C)c4ccccc43)nn2-c2ccc(S(N)(=O)=O)cc2)cc1 [CCY-5]
- IC50: 1.57 µM

From PMC7570625, “Design and Synthesis of a Novel NIR Celecoxib-Based Fluorescent Probe for Cyclooxygenase-2 Targeted Bioimaging in Tumor Cells” (Molecules, 2020)
